Test results taken from paper PMC10461232, “Structure-Based Design of Transport-Specific Multitargeted One-Carbon Metabolism Inhibitors in Cytosol and Mitochondria” (Journal of Medicinal Chemistry, 2023).
Like-named read-outs stand apart in the source and are kept apart here.

Columns and labels:
[1] = test system: R2 (MTXRIIOuaR2-4) CHO cells; test: Growth inhibition, transporter-null R2 CHO cells; assay type: cell-based, Chinese hamster; conditions: Cricetulus griseus, 96 h, read-out: IC50 R2
PC43-10 (RFC) CHO cells = test: Growth inhibition, PC43-10 CHO cells expressing human RFC; assay type: cell-based, Chinese hamster; conditions: Cricetulus griseus, 96 h, read-out: IC50 PC43-10 (RFC)
[2] = test system: R2/PCFT4 (PCFT) CHO cells; test: Growth inhibition, R2/PCFT4 CHO cells expressing human PCFT; assay type: cell-based, Chinese hamster; conditions: Cricetulus griseus, 96 h, read-out: IC50 R2/PCFT4 (PCFT)
RT16 (FRα) CHO cells = test: Growth inhibition, RT16 CHO cells expressing human FRα; assay type: cell-based, Chinese hamster; conditions: 96 h, mean (SE)
D4 (FRβ) CHO cells = test: Growth inhibition, D4 CHO cells expressing human FRβ; assay type: cell-based, Chinese hamster; conditions: for IC50: Cricetulus griseus, CHO, 96 h, mean (SE); for difference between D4 (FRβ) and RT16 (FRα) IC50: RT16 versus D4 CHO cells
KB (RFC/PCFT/FRα) cells = test: Growth inhibition, KB nasopharyngeal carcinoma cells; assay type: cell-based, human; conditions: Homo sapiens, KB, folate-free RPMI 1640, 2 nM leucovorin, mean (SE)
Protocol: The CHO cells were cultured in α-minimal essential medium (MEM) supplemented with 10% bovine calf serum (Fisher Scientific), penicillin (1000 U/mL)/streptomycin (1000 μg/mL), and 2 mM L-glutamine at 37 °C with 5% CO2. All of the R2 transfected cells (PC43-10, RT16, R2/PCFT4) were cultured in complete α-MEM media plus 1 mg/mL G418. Prior to the cytotoxicity assays (see below), RT16 and D4 cells were cultured for 3 days in complete folate-free RPMI 1640 (without added folate), and R2/PCFT4 and R2 cells were cultured in complete folate-free RPMI 1640 supplemented with dialyzed fetal bovine serum (Fisher Scientific) and 25 nM leucovorin plus 1 mg/mL G418. KB cells were routinely cultured in folate-free RPMI 1640 medium, supplemented with 10% fetal bovine serum (Fisher Scientific), penicillin-streptomycin solution, and 2 mM L-glutamine at 37 °C with 5% CO2.
For growth inhibition studies, cells (CHO, KB) were plated in 96-well dishes (∼2500–5000 cells/well, total volume of 200 μL medium) over a range of antifolate concentrations.[69],[77] The medium was folate-free RPMI 1640 with 10% dialyzed serum and antibiotics supplemented with 25 nM leucovorin for experiments with R2, PC43-10, and R2/PCFT4 cells. For experiments with RT16, D4, and KB cells, cells were cultured in folate-free RPMI medium with 10% dialyzed fetal bovine serum and antibiotics; the medium was supplemented with 2 nM leucovorin. […] Incubations were routinely for up to 96 h. Viable cells (reflecting cell viability) were assayed with Cell Titer Blue reagent (Promega, Madison, WI), with fluorescence measured (590 nm emission, 560 nm excitation) with a fluorescence plate reader.

HPAC (RFC/PCFT) cells = test: Proliferation inhibition, HPAC pancreatic adenocarcinoma cells; assay type: cell-based, human; conditions: for IC50: HPAC cells, folate- and glycine-free RPMI, 25 nM leucovorin, mean (SE)
From the text: (§1) The RFC-, PCFT-, and FR-null MTXRIIOua^R2–4 (R2), and RFC- (PC43-10), PCFT- (R2/PCFT4), FRα- (RT16), and FRβ- (D4) expressing CHO sublines were previously described.[62]−[64],[76] HPAC pancreatic cancer cells were generously provided by Dr. Yubin Ge (Karmanos Cancer Institute, Detroit, MI). Human pancreatic normal epithelial (HPNE) cells[67] were a gift from M. Oulette (University of Nebraska Medical Center, Omaha, NE). KB human nasopharyngeal carcinoma cells were purchased from the American Type Culture Collection (Manassas, VA). All human cell lines were validated by STR analysis by Genetica DNA Laboratories (Burlington, NC). Cell lines were tested for Mycoplasma by PCR using a Mycloplasma testing kit (Venor GeM Mycoplasma Detection Kit, Sigma). Frozen stocks were generated from authenticated Mycoplasma-free cultures.

HPNE (RFC) cells = test: Proliferation inhibition, HPNE normal pancreatic epithelial cells; assay type: cell-based; conditions: Homo sapiens, folate- and glycine-free RPMI, 25 nM leucovorin
From the text: as §1

[3] = Cricetulus griseus, read-out: IC50 RT16 (FRα), CHO cells expressing human FRα, 96 h, 2 nM leucovorin
[4] = read-out: IC50 D4 (FRβ), CHO cells expressing human FRβ, 96 h, 2 nM leucovorin
[5] = transporter-null CHO cells, 25 nM leucovorin, mean (SE)
[6] = CHO cells expressing human RFC, 25 nM leucovorin, mean (SE)
[7] = CHO cells expressing human PCFT, 25 nM leucovorin, mean (SE)
[8] = Cricetulus griseus, CHO cells expressing human FRα, 2 nM leucovorin, read-out: IC50 RT16 (FRα)
[9] = CHO cells expressing human FRβ, 2 nM leucovorin, read-out: IC50 D4 (FRβ)

Row | IC50 (KB (RFC/PCFT/FRα) cells) [nM] | IC50 (HPAC (RFC/PCFT) cells; Homo sapiens, HPAC) [nM] | IC50 HPAC (RFC/PCFT) (HPAC (RFC/PCFT) cells) [nM] | Structure (SMILES) | IC50 ([1]; CHO) [nM] | IC50 (PC43-10 (RFC) CHO cells) [nM] | IC50 [2] [nM] | IC50 (RT16 (FRα) CHO cells; [3]) [nM] | IC50 (D4 (FRβ) CHO cells; [4]) [nM] | IC50 (HPAC (RFC/PCFT) cells) [nM] | IC50 (HPNE (RFC) cells) [nM] | IC50 [1, 5] [nM] | IC50 (PC43-10 (RFC) CHO cells; [6]) [nM] | IC50 [2, 7] [nM] | IC50 (RT16 (FRα) CHO cells; [8]) [nM] | IC50 (D4 (FRβ) CHO cells; [9]) [nM] | difference between D4 (FRβ) and RT16 (FRα) IC50 (D4 (FRβ) CHO cells) | IC50 (RT16 (FRα) CHO cells; CHO cells expressing human FRα, 2 nM leucovorin, read-out: IC50 RT16 (FRα)) [nM]
1 | 6.3 | 1620 |  | Nc1nc2ccn(CCCCCc3ccc(C(=O)N[C@@H](CCC(=O)O)C(=O)O)cc3)c2c(=O)[nH]1 [Compound 9] |  |  |  |  |  |  | > 5000 | > 1000 | > 1000 | > 1000 | 13.5 | 6.33 |  | 
2 | 9.26 | > 5000 |  | Nc1nc2ccn(CCCCc3cc(F)c(C(=O)N[C@@H](CCC(=O)O)C(=O)O)c(F)c3)c2c(=O)[nH]1 [Compound 12, (4-(4-(2-Amino-4-oxo-3,4-dihydro-5H-pyrrolo[3,2-d]pyrimidin-5-yl)butyl)-2,6-difluorobenzoyl)-L-glutamic Acid] |  |  |  |  |  |  | > 5000 | > 1000 | > 1000 | > 1000 | 2.55 | 7.5 |  | 
3 | 8.34 | 166 | 2600 to 4600 | Nc1nc2ccn(CCCc3ccc(C(=O)N[C@@H](CCC(=O)O)C(=O)O)c(F)c3)c2c(=O)[nH]1 [Compound 13, (4-(3-(2-Amino-4-oxo-3,4-dihydro-5H-pyrrolo[3,2-d]pyrimidin-5-yl)propyl)-2-fluorobenzoyl)-L-glutamic Acid] |  |  |  |  |  |  | > 5000 | > 1000 | 233 | 98 | 16.3 | 0.63 | 20- to 40 fold | 
4 | 6.81 | 2590 |  | Nc1nc2ccn(CCCCc3ccc(C(=O)N[C@@H](CCC(=O)O)C(=O)O)cc3)c2c(=O)[nH]1 [Compound 15] |  |  |  |  |  |  | > 5000 | > 1000 | > 1000 | > 1000 | < 3 |  |  | 1.64

The remaining lines, values behind:

Row | Structure (SMILES) | IC50 (KB (RFC/PCFT/FRα) cells) [nM] | IC50 (HPAC (RFC/PCFT) cells; Homo sapiens, HPAC) [nM] | IC50 HPAC (RFC/PCFT) (HPAC (RFC/PCFT) cells) [nM] | IC50 ([1]; CHO) [nM] | IC50 (PC43-10 (RFC) CHO cells) [nM] | IC50 [2] [nM] | IC50 (RT16 (FRα) CHO cells; [3]) [nM] | IC50 (D4 (FRβ) CHO cells; [4]) [nM] | IC50 (HPAC (RFC/PCFT) cells) [nM] | IC50 (HPNE (RFC) cells) [nM] | IC50 [1, 5] [nM] | IC50 (PC43-10 (RFC) CHO cells; [6]) [nM] | IC50 [2, 7] [nM] | IC50 (RT16 (FRα) CHO cells; [8]) [nM] | IC50 (D4 (FRβ) CHO cells; [9]) [nM] | difference between D4 (FRβ) and RT16 (FRα) IC50 (D4 (FRβ) CHO cells) | IC50 (RT16 (FRα) CHO cells; CHO cells expressing human FRα, 2 nM leucovorin, read-out: IC50 RT16 (FRα)) [nM]
5 | Nc1nc2ccn(CCCCCc3ccc(C(=O)N[C@@H](CCC(=O)O)C(=O)O)s3)c2c(=O)[nH]1 [Compound 3] | 7.47 | 746 |  | > 1000 | > 1000 | > 1000 | 14.6 | 7.89 | 746 | > 5000 |  |  |  |  |  |  | 
6 | Nc1nc2ccn(CCCc3ccc(C(=O)N[C@@H](CCC(=O)O)C(=O)O)s3)c2c(=O)[nH]1 [Compound 4] | 23.7 | 2990 |  |  |  |  |  |  |  | > 5000 | > 1000 | > 1000 | 497 | 33 | 1.94 | 20- to 40 fold | 
7 | Nc1nc2ccn(CCCOc3ccc(C(=O)N[C@@H](CCC(=O)O)C(=O)O)cc3)c2c(=O)[nH]1 [Compound 5, (4-(3-(2-Amino-4-oxo-3,4-dihydro-5H-pyrrolo[3,2-d]pyrimidin-5-yl)propoxy)benzoyl)-L-glutamic Acid] | 8.23 | 1200 to 1600 |  |  |  |  |  |  | 1670 | > 5000 | > 1000 | > 1000 | > 1000 | 18.7 | 0.45 | 20- to 40 fold | 
8 | Nc1nc2ccn(CCOc3ccc(C(=O)N[C@@H](CCC(=O)O)C(=O)O)cc3)c2c(=O)[nH]1 [Compound 6, (4-(3-(2-Amino-4-oxo-3,4-dihydro-5H-pyrrolo[3,2-d]pyrimidin-5-yl)ethoxy)benzoyl)-L-glutamic Acid] | 11.2 | 4620 |  |  |  |  |  |  |  | > 5000 | > 1000 | > 1000 | 431 | 67.7 | 1.62 | 20- to 40 fold | 
9 | Nc1nc2ccn(CCCNc3ccc(C(=O)N[C@@H](CCC(=O)O)C(=O)O)cc3)c2c(=O)[nH]1 [Compound 8, (4-((3-(2-Amino-4-oxo-3,4-dihydro-5H-pyrrolo[3,2-d]pyrimidin-5-yl)propyl)amino)benzoyl)-L-glutamic Acid] | 6.17 | > 5000 |  |  |  |  |  |  |  | > 5000 | > 1000 | > 1000 | > 1000 | 6.88 |  |  | 
10 | Nc1nc2ccn(CCCCCc3ccc(C(=O)N[C@@H](CCC(=O)O)C(=O)O)c(F)c3)c2c(=O)[nH]1 [Compound 11, (4-(5-(2-Amino-4-oxo-3,4-dihydro-5H-pyrrolo[3,2-d]pyrimidin-5-yl)pentyl)-2-fluorobenzoyl)-L-glutamic Acid] | 6.25 | 1230 |  | > 1000 | > 1000 | > 1000 | 26.8 | 6.95 |  | > 5000 |  |  |  |  |  |  | 
